# Experiments:
# [1] = physchem; conditions: octanol/ph 7.0 buffer, pH 7, Log P
# Procedure: Measurement of Octanol-Water Partition Coefficients.
# n-Octanol-water partition coefficients (P) were determined by a microscale shake-flask procedure, (Ford, H. et al Abstracts of Papers, 200th National Meeting of the American Chemical Society, Washington, D.C.; American Chemical Society: Washington, D.C., 1990; CARB 13) which was modification of an earlier method (Nahum, A. & Horvath, C. J. Chromatogr. 1980, 192, 315). A 20 μL aliquot of a 0.5 mg/mL DMSO solution of the dideoxynucleoside was dissolved in 1.0 mL of octanol-saturated, pH 7.0, 0.01M potassium phosphate buffer. This was mixed thoroughly with 1.0 ml of buffer-saturated n-octanol in a 2-mL Mixxor apparatus at 24°-26° C. and then allowed to stand for 15 min. The phases were separated, centrifuged at 600×g for 5 min, and the relative concentration of sample in each phase determined by HPLC analysis of a 50 μl aliquot. The partition coefficient was calculated by dividing the absolute area of the appropriate integrated peak from the octanol phase by that of the buffer phase (Table I).
# Octanol/pH 7.0 buffer partition coefficients were determined using a newly developed microscale method. […] The addition of a methyl group normally increases the log P value of a compound by about 0.5.
# [2] = target: T1, adenosine deaminase (adenosine aminohydrolase, EC 3.5.4.4) (Bos taurus, UniProt P56658); test: Enzymatic deamination by adenosine deaminase (HPLC)
# T1 sequence (P56658 1-363): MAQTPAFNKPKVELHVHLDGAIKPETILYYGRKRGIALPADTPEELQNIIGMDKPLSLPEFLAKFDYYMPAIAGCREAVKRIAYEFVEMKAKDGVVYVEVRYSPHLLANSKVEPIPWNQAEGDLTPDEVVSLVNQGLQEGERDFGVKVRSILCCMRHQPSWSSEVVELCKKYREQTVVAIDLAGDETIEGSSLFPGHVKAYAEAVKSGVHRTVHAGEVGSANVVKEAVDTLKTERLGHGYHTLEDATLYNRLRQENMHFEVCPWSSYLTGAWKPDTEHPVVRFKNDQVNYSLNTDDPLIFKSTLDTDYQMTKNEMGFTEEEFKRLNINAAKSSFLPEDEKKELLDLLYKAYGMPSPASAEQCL
# Procedure: FIG. 1. Deamination of dideoxyadenosine analogues by adenosine deaminase. Hydrolysis kinetics and 2'-F-dd-ara-I formation during the incubation of 50 μM N^6 -CH3 -2'-F-dd-ara-A (1f) with 0.7 units/mL of adenosine deaminase at 37° C. A unit of adenosine deaminase is the amount of enzyme which hydrolyzes a standard substrate (e.g., adenosine) at the rate of 1.0 μmole/min at 25° C. and pH 7.5. […] Insert: Adenosine deaminase hydrolysis kinetics for 50 μM ddA and 2'-F-dd-ara-A. The hydrolysis curve for ddA has been extrapolated from kinetics obtained with 0.07 units/mL of adenosine deaminase under identical conditions.
# A 50 μl aliquot of a 10 mg/ml suspension of adenosine deaminase (adenosine aminohydrolase, EC 3.5.4.4) from calf intestinal mucosa was centrifuged at 600×g for 3 min. The residue remaining after removal of the (NH4)2 SO4 supernatant was dissolved in 0.5 ml pH 7.4 tris(hydroxymethyl)-aminomethane (Tris) buffer to give an enzyme solution of 1 mg/ml (274 units/ml). […] A pH 7.4 buffer was prepared by adjusting 0.01M Tris to pH 7.4 with 0.5N HCl, The 1.0 HCl , HPLC-grade acetonitrile, monobasic potassium phosphate, sodium hydroxide and ultrapure Tris were all commercially available and were used without further purification.
# Enzymatic Deamination of Adenosine Analogues. […] A 50 μL aliquot of substrate solution was diluted with 0.95 ml 0.01M Tris buffer in a 1.5-mL Eppendorf tube and equilibrated at 37° C. in a Dubnoff metabolic shaking incubator. Reaction was initiated by addition of 2.5 μL of adenosine deaminase solution (0.7 unit). At specified time intervals, a 50 μL aliquot of the reaction mixture was withdrawn and quenched by mixing with 0.45 mL cold 2 μM 2'-deoxycoformycin. This diluted sample was ultrafiltered to remove enzyme in a Centrifree Micropartition unit by centrifugation at 600×g at 4° C. in a high speed refrigerated centrifuge. The decrease in substrate concentration was monitored by HPLC analysis of the resultant ultrafiltrate (see below). The ability of 2'-deoxycoformycin to inhibit deamination under the above conditions was evaluated by adding 2 μL of 1.0 mM inhibitor to diluted substrate solutions at the time of equilibration. Reaction, sampling and analysis were carried out as above. […] Initial hydrolysis rates for each substrate concentration were measured through linear least-squares curve fitting of the concentration versus time data for reaction of the first 10% of substrate. KM and vmax values for each substrate were then determined from a graphical lineweaver-Burke plot of these initial rates (FIG. 1).
# HPLC Analysis of Dideoxypurine Nucleosides.
# Concentrations of dideoxynucleosides were measured by the HPLC analysis of 100 μL aliquots of ultrafiltered samples. A 4.6×250 mm 5-μm Ultrasphere-ODS column, protected by a Waters guard column packed with 37-50 μm Vydac 201SC, was eluted with 10-20% CH3 CN in 0.01M pH 7.0 phosphate buffer at a flow rate of 1.0 mL/min. Dideoxynucleosides and deamination products were detected at the appropriate wavelength of maximum absorption with a Gilson 116 variable wavelength detector. Peak identity was determined from coincidence of retention times with standards and by comparison of on-the-fly UV spectra obtained with a Perkin-Elmer LC-235 diode array detector. Peak areas and peak heights were measured simultaneously on a Spectra-Physics SP4200 computing integrator.
smiles,measurement,setting,value
"CNc1ncnc2c1ncn2[C@@H]1O[C@H](CO)C[C@@H]1F [Compound 1f, N^6 -Methyl-9-(2'3'-dideoxy-2'-fluoro-β-D-arabinofuranosyl)adenine]",logD,[1],0.27 ± 0.01
same,Measured Relative Rate,"[2]; 50 μM substrate, pH 7.4 and 37° C., ddA = 100",0.04
same,deamination product / product formation (in words),"[2]; 0.7 U/mL ADA, 37° C.","the corresponding inosine analogue, 1b, was the product formed"
same,half-life at 50 µM,"[2]; bovine, adenosine deaminase",3 h
same,vmax,[2]; pH 7.4 and 37° C.,5.5 × 10^-4 μmol/min/U
same,"hydrolysis rate, times slower than 1a","[2]; vs 1a, 0.7 U/mL ADA, 37° C.",135 times slower
same,"binding to ADA, times tighter than 1i",[2]; vs 1i,about 70 times tighter
same,"vmax, times slower than 1i",[2]; vs 1i,50 times slower
same,"hydrolysis by ADA, times slower than ddA","[2]; vs ddA, 50 μM substrate",~2500 times slower

# Reference: patent US5459256A, “Lipophilic, aminohydrolase-activated prodrugs” (priority 1991, dated 1995)
